Test results published in PubChem BioAssay AID248 (DTP/NCI, 2004).
Toxic doses and inconclusive results are not listed. Rule as the data show it: active = T/C of 150% or more; inactive = T/C below 125%.

System: L1210 leukemia ip in BDF1 mice, survival T/C
Assay: NCI In Vivo Anticancer Drug Screen. Data for tumor model L1210 Leukemia (intraperitoneal) in B6D2F1 (BDF1) mice
Conditions: higher = longer survival
Procedure, shortened: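 Antitumor effect is assessed in tumor-bearing animals. Survival in the compound arm is compared with a vehicle-dosed control arm and expressed as their quotient.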

[1] = endpoint: mean survival time, dose: 100.0 mg/kg/injection, schedule: Q01DX009 (ip), vehicle: other
[2] = endpoint: mean survival time, dose: 200.0 mg/kg/injection, schedule: Q01DX009 (ip), vehicle: other
[3] = endpoint: mean survival time, dose: 400.0 mg/kg/injection, schedule: Q01DX009 (ip), vehicle: other
[4] = endpoint: mean survival time, dose: 100.0 mg/kg/injection, schedule: Q04DX003 (ip), vehicle: saline with Tween-80
[5] = endpoint: mean survival time, dose: 200.0 mg/kg/injection, schedule: Q04DX003 (ip), vehicle: saline with Tween-80
[6] = endpoint: mean survival time, dose: 400.0 mg/kg/injection, schedule: Q04DX003 (ip), vehicle: saline with Tween-80
[7] = endpoint: mean survival time, dose: 100.0 mg/kg/injection, schedule: Q01DX009 (ip), vehicle: Klucel (hydroxypropylcellulose) (HPC)
[8] = endpoint: mean survival time, dose: 100.0 mg/kg/injection, schedule: Q04DX003 (ip), vehicle: Klucel (hydroxypropylcellulose) (HPC)
[9] = endpoint: mean survival time, dose: 200.0 mg/kg/injection, schedule: Q01DX009 (ip), vehicle: Klucel (hydroxypropylcellulose) (HPC)
[10] = endpoint: mean survival time, dose: 200.0 mg/kg/injection, schedule: Q04DX003 (ip), vehicle: Klucel (hydroxypropylcellulose) (HPC)
[11] = endpoint: mean survival time, dose: 400.0 mg/kg/injection, schedule: Q01DX009 (ip), vehicle: Klucel (hydroxypropylcellulose) (HPC)
[12] = endpoint: mean survival time, dose: 400.0 mg/kg/injection, schedule: Q04DX003 (ip), vehicle: Klucel (hydroxypropylcellulose) (HPC)
[13] = endpoint: mean survival time, dose: 100.0 mg/kg/injection, schedule: Q01DX001 (ip), vehicle: saline
[14] = endpoint: mean survival time, dose: 200.0 mg/kg/injection, schedule: Q01DX001 (ip), vehicle: saline
[15] = endpoint: mean survival time, dose: 50.0 mg/kg/injection, schedule: Q01DX009 (ip), vehicle: Klucel (hydroxypropylcellulose) (HPC)

Measured: T/C

NC(=S)N1CCOCC1
inactive: endpoint: mean survival time, dose: 100.0 mg/kg/injection, schedule: Q04DX002 (ip), vehicle: saline 97 % of control | endpoint: mean survival time, dose: 200.0 mg/kg/injection, schedule: Q04DX002 (ip), vehicle: saline 101 % of control | endpoint: mean survival time, dose: 400.0 mg/kg/injection, schedule: Q04DX002 (ip), vehicle: saline 108 % of control

COc1ccc(CN(CC(=O)O)S(C)(=O)=O)cc1
inactive: [1] 110 % of control | endpoint: mean survival time, dose: 100.0 mg/kg/injection, schedule: Q04DX003 (ip), vehicle: other 90 % of control | [2] 107 % of control | endpoint: mean survival time, dose: 200.0 mg/kg/injection, schedule: Q04DX003 (ip), vehicle: other 98 % of control | [3] 111 % of control | endpoint: mean survival time, dose: 400.0 mg/kg/injection, schedule: Q04DX003 (ip), vehicle: other 95 % of control

CCSc1ccc2c(cc1=O)[C@@H](NC1OC(CO)C(O)C(O)C1O)CCc1cc(OC)c(OC)c(OC)c1-2 (stereo partly specified)
inactive: endpoint: mean survival time, dose: 50.0 mg/kg/injection, schedule: Q01DX009 (ip), vehicle: other 105 % of control | [1] 102 % of control | [2] 114 % of control | [3] 114 % of control

O=C(O)/C=C/C(=O)Nc1ccc(F)cc1F
inactive: [4] 100 % of control | [5] 100 % of control | [6] 107 % of control

CC(C)(C)C(=O)CC(=O)C(C)(C)C.CC(C)(C)C(=O)CC(=O)C(C)(C)C.CC(C)(C)C(=O)CC(=O)C(C)(C)C.CC(C)(C)C(=O)CC(=O)C(C)(C)C.[Er]
inactive: [4] 108 % of control | [5] 92 % of control | [6] 88 % of control

CCOC1Cc2ccccc21 (stereo unspecified)
inactive: [4] 95 % of control | [5] 96 % of control | [6] 98 % of control

O=C(O)C1CC/C=C\CCC1 (stereo unspecified)
inactive: endpoint: mean survival time, dose: 100.0 mg/kg/injection, schedule: Q01DX009 (sc), vehicle: olive oil, sesame oil, peanut oil 99 % of control | endpoint: mean survival time, dose: 100.0 mg/kg/injection, schedule: Q04DX003 (sc), vehicle: olive oil, sesame oil, peanut oil 109 % of control | endpoint: mean survival time, dose: 200.0 mg/kg/injection, schedule: Q01DX009 (sc), vehicle: olive oil, sesame oil, peanut oil 89 % of control | endpoint: mean survival time, dose: 200.0 mg/kg/injection, schedule: Q04DX003 (sc), vehicle: olive oil, sesame oil, peanut oil 106 % of control | endpoint: mean survival time, dose: 400.0 mg/kg/injection, schedule: Q01DX009 (sc), vehicle: olive oil, sesame oil, peanut oil 88 % of control | endpoint: mean survival time, dose: 400.0 mg/kg/injection, schedule: Q04DX003 (sc), vehicle: olive oil, sesame oil, peanut oil 97 % of control

O=c1[nH]c2cc(Cl)cc([N+](=O)[O-])c2c2c(Cl)cc(Cl)cc12
inactive: [7] 100 % of control | [8] 95 % of control | [9] 101 % of control | [10] 97 % of control | [11] 104 % of control | [12] 92 % of control

O=[N+]([O-])c1cccc2c1CCCC2
inactive: endpoint: mean survival time, dose: 12.5 mg/kg/injection, schedule: Q01DX009 (ip), vehicle: saline with Tween-80 98 % of control | endpoint: mean survival time, dose: 25.0 mg/kg/injection, schedule: Q01DX009 (ip), vehicle: saline with Tween-80 93 % of control | endpoint: mean survival time, dose: 50.0 mg/kg/injection, schedule: Q01DX009 (ip), vehicle: saline with Tween-80 98 % of control | [4] 107 % of control | endpoint: mean survival time, dose: 200.0 mg/kg/injection, schedule: Q01DX009 (ip), vehicle: saline with Tween-80 87 % of control | [5] 105 % of control | endpoint: mean survival time, dose: 400.0 mg/kg/injection, schedule: Q01DX009 (ip), vehicle: saline with Tween-80 105 % of control | [6] 96 % of control

NS(=O)(=O)c1cc2c(cc1Cl)NCNS2(=O)=O
inactive: endpoint: median survival time, dose: 125.0 mg/kg/injection, schedule: Q12HX016 (oral), vehicle: Klucel (hydroxypropylcellulose) (HPC) 95 % of control | endpoint: median survival time, dose: 125.0 mg/kg/injection, schedule: Q12HX022 (oral), vehicle: Klucel (hydroxypropylcellulose) (HPC) 94 % of control | endpoint: median survival time, dose: 250.0 mg/kg/injection, schedule: Q12HX016 (oral), vehicle: Klucel (hydroxypropylcellulose) (HPC) 93 % of control | endpoint: median survival time, dose: 250.0 mg/kg/injection, schedule: Q12HX022 (oral), vehicle: Klucel (hydroxypropylcellulose) (HPC) 98 % of control | endpoint: median survival time, dose: 500.0 mg/kg/injection, schedule: Q12HX016 (oral), vehicle: Klucel (hydroxypropylcellulose) (HPC) 93 % of control | endpoint: median survival time, dose: 500.0 mg/kg/injection, schedule: Q12HX022 (oral), vehicle: Klucel (hydroxypropylcellulose) (HPC) 98 % of control

O=[N+]([O-])c1cc(S(=O)(=O)F)cc(Cl)c1S
inactive: [8] 98 % of control | [10] 102 % of control

NNS(=O)(=O)Cc1ccccc1
inactive: [13] 100 % of control | [14] 95 % of control

CCCCCCCC(O)CCC (stereo unspecified)
inactive: [7] 94 % of control | [8] 100 % of control | [9] 104 % of control | [10] 97 % of control | [12] 92 % of control

Cn1c(=O)c2ccccc2c2cc([N+](=O)[O-])ccc21
inactive: [15] 93 % of control | [7] 97 % of control | [8] 90 % of control | [9] 97 % of control | [10] 94 % of control

NCc1cccc2ccccc12
inactive: endpoint: mean survival time, dose: 62.5 mg/kg/injection, schedule: Q01DX001 (ip), vehicle: saline 109 % of control | [13] 112 % of control | endpoint: mean survival time, dose: 125.0 mg/kg/injection, schedule: Q01DX001 (ip), vehicle: saline 104 % of control | [14] 96 % of control

O=C(O)CN(CC(=O)O)Cc1ccccc1
inactive: endpoint: mean survival time, dose: 5.0 mg/kg/injection, schedule: Q01DX001 (ip), vehicle: saline 102 % of control | endpoint: mean survival time, dose: 10.0 mg/kg/injection, schedule: Q01DX001 (ip), vehicle: saline 102 % of control | endpoint: mean survival time, dose: 20.0 mg/kg/injection, schedule: Q01DX001 (ip), vehicle: saline 100 % of control | endpoint: mean survival time, dose: 40.0 mg/kg/injection, schedule: Q01DX001 (ip), vehicle: saline 100 % of control

COC(=O)C(NC(C)=O)C(=O)OC
inactive: [7] 98 % of control | [8] 90 % of control | [9] 104 % of control | [10] 98 % of control | [11] 96 % of control | [12] 106 % of control

CCC1CCC(NC(=O)NCCF)CC1 (stereo unspecified)
inactive: endpoint: mean survival time, dose: 75.0 mg/kg/injection, schedule: Q01DX001 (ip), vehicle: other 98 % of control

Cc1cc(=O)oc2cc(OC(=O)Nc3cccc(Cl)c3Cl)ccc12
inactive: endpoint: mean survival time, dose: 25.0 mg/kg/injection, schedule: Q01DX009 (ip), vehicle: Klucel (hydroxypropylcellulose) (HPC) 89 % of control | [15] 93 % of control | [7] 98 % of control

CC(C)=CCCC1(C)C=Cc2c(c(C)cc3c4ccccc4n(C)c23)O1 (stereo unspecified)
inactive: endpoint: mean survival time, dose: 25.0 mg/kg/injection, schedule: Q04DX002 (ip), vehicle: DMSO 96 % of control | endpoint: mean survival time, dose: 50.0 mg/kg/injection, schedule: Q04DX002 (ip), vehicle: DMSO 89 % of control | endpoint: mean survival time, dose: 100.0 mg/kg/injection, schedule: Q04DX002 (ip), vehicle: DMSO 99 % of control

O=c1cc(I)[nH]c(=O)[nH]1
inactive: endpoint: mean survival time, dose: 73.0 mg/kg/injection, schedule: Q01DX Z (ip), vehicle: methylcellulose (MC) 100 % of control | endpoint: mean survival time, dose: 111.0 mg/kg/injection, schedule: Q01DX Z (ip), vehicle: methylcellulose (MC) 96 % of control | endpoint: mean survival time, dose: 165.0 mg/kg/injection, schedule: Q01DX Z (ip), vehicle: methylcellulose (MC) 102 % of control | endpoint: mean survival time, dose: 248.0 mg/kg/injection, schedule: Q01DX Z (ip), vehicle: methylcellulose (MC) 110 % of control

O=C(CS(=O)(=O)C1CCCCC1)C1CCCCC1
inactive: [4] 94 % of control | [5] 94 % of control | [6] 88 % of control

O=C(CCBr)N1CCCN(C(=O)CCBr)CC1
inactive: endpoint: mean survival time, dose: 106.0 mg/kg/injection, schedule: Q01DX Z (ip), vehicle: carboxymethylcellulose (CMC) 114 % of control | endpoint: mean survival time, dose: 160.0 mg/kg/injection, schedule: Q01DX Z (ip), vehicle: carboxymethylcellulose (CMC) 119 % of control

C[Se]c1nc2c(=O)[nH]cnc2n1C1OC(CO)C(O)C1O (stereo unspecified)
inactive: endpoint: mean survival time, dose: 100.0 mg/kg/injection, schedule: Q01DX005 (ip), vehicle: saline 103 % of control | endpoint: mean survival time, dose: 200.0 mg/kg/injection, schedule: Q01DX005 (ip), vehicle: saline 111 % of control

COc1ccc(CC[n+]2cccc(C#N)c2)cc1OC
inactive: endpoint: mean survival time, dose: 75.0 mg/kg/injection, schedule: Q01DX001 (ip), vehicle: carboxymethylcellulose (CMC) 105 % of control | endpoint: mean survival time, dose: 150.0 mg/kg/injection, schedule: Q01DX001 (ip), vehicle: carboxymethylcellulose (CMC) 100 % of control
